According to patent US8975399B2, “Benzenesulfon amide-compound treatment of a pathological condition linked to an excessive effect of TNF” (priority 2010, dated 2015):

Biological target: T1, human TNF-alpha (Homo sapiens, UniProt P01375)
T1 construct: purchased R & D Diagnostics
Test: Apoptosis induced by human TNF-alpha on murine L929 cells (MTT survival)
Format: cell-based
Conditions: compound 10 μM, human TNF-alpha 0.150 ng/ml, 24 hours, % survival based on control cells without TNF
Procedure: The compounds are dissolved in DMSO to be used in vitro or in vivo by oral route, and in Cremophor® for their use in vivo by intraperitoneal route.
The cells were cultured in DMEM medium with 10% fcetal calf serum added. 4×10^4 cells in 100 μl of culture medium were exposed to human TNF-alpha (R & D Diagnostics) at 0.150 ng/ml for 24 hours in 96-well plates, and the tested compound was added at a final concentration of 100 μM or 10 μM. A solution of MTT dye was added (100 μl at 0.5 mg/ml) to each well over two hours in order to measure cell survival. The absorbance was measured at 570 nm using a BMG Fluostar microplate reader. The inhibitory activity of the products was expressed as a calculated % survival based on the control cells without the addition of TNF.

T1 sequence (P01375 77-233 limits assumed): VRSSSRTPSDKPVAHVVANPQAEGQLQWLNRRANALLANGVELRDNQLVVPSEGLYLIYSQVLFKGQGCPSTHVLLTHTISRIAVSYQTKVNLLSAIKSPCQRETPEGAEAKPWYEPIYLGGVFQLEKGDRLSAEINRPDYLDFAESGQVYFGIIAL

| Compound | % Inhibition 10 μM [%] |
| --- | --- |
| COc1ccc(NC(=O)CN(Cc2cccc(Cl)c2)S(=O)(=O)c2ccc(C)cc2)c(OC)c1 [Compound 33, N˜2˜-(3-chlorobenzyl)-N˜1˜-(2,4-dimethoxyphenyl)-N˜2˜-[(4-methylphenyl)sulphonyl]glycinamide] | 52.4 |
| COC(=O)c1c(C)oc2ccc(NS(=O)(=O)c3ccc(OC)cc3)cc12 [Compound 2, methyl 5-{[(4-methoxyphenyl)sulphonyl]amino}-2-methyl-1-benzofuran-3-carboxylate] | 57.51 |
| COc1ccccc1N1CCN(C(=O)CN(Cc2ccccc2)S(=O)(=O)c2ccc(F)cc2)CC1 [Compound 75, N-benzyl-4-fluoro-N-{2-[4-(2-methoxyphenyl)-1-piperazinyl]-2-oxoethyl}benzenesulphonamide] | 44.7 |
| Cc1ccc(S(=O)(=O)N(CC(=O)N2CCC(Cc3ccccc3)CC2)c2ccc(F)cc2)cc1 [Compound 81, N-[2-(4-benzyl-1-piperidinyl)-2-oxoethyl]-N-(4-fluorophenyl)-4-methylbenzenesulphonamide] | 34.8 |
| COc1ccccc1N1CCN(C(=O)CN(Cc2ccccc2)S(=O)(=O)c2ccc(Br)cc2)CC1 [67 (15), N-benzyl-4-bromo-N-{2-[4-(2-methoxyphenyl)-1-piperazinyl]-2-oxoethyl}benzenesulphonamide] | 61.8 |
| Cc1ccc(S(=O)(=O)N(CC(=O)N2CCN(Cc3ccccc3)CC2)c2ccccc2C)cc1 [Compound 82, N-[2-(4-benzyl-1-piperazinyl)-2-oxoethyl]-4-methyl-N-(2-methylphenyl)benzenesulphonamide] | 34.6 |
| N-(1′,2-dihydroxy-1.2′-binaphthhalen-4′-yl)-4-methoxybenzene-sulphonamide [Compound 21] | 53.45 |
| N-(1,2-dihydro-5-acenaphthhylenyl)-2.4,6-trimethylbenzenesulphonamide [Compound 26] | 43.84 |
| Cc1ccc(-c2nnc(NCc3ccccc3)c3ccccc23)cc1S(=O)(=O)NCC1CCCO1 (stereo not shown) [Compound 23, 5-[4-(benzylamino)-1-phthalazinyl]-2-methyl-N-(tetrahydro-2-furanylmethyl)benzenesulphonamide] | 44.74 |
| Cc1ccc(S(=O)(=O)N(CC(=O)N2CCN(Cc3ccccc3)CC2)c2ccc(C)c(C)c2)cc1 [72 (21), N-[2-(4-benzyl-1-piperazinyl)-2-oxoethyl]-N-(3,4-dimethylphenyl)-4-methylbenzenesulphonamide] | 53.4 |
| Cc1c(Cl)cccc1N(CC(=O)N1CCN(Cc2ccccc2)CC1)S(=O)(=O)c1ccccc1 [73 (23), N-[2-(4-benzyl-1-piperazinyl)-2-oxoethyl]-N-(3-chloro-2-methylphenyl)benzenesulphonamide] | 44.8 |
| N-{2-[4-(diphenylmethyl)-1-piperazinyl]-2-oxoethyl}-N,4-dimethyl benzenesulphonamide [Compound 85] | 32.1 |
| COc1ccccc1N1CCN(C(=O)CN(Cc2ccccc2)S(=O)(=O)c2ccc(Cl)cc2)CC1 [66 (14), N-benzyl-4-chloro-N-{2-[4-(2-methoxyphenyl)-1-piperazinyl]-2-oxoethyl}benzenesulphonamide] | 67.4 |
| COc1ccc(S(=O)(=O)N(CC(=O)N2CCN(c3ccc(F)cc3)CC2)Cc2ccccc2)cc1OC [Compound 84, N-benzyl-N-{2-[4-(4-fluorophenyl)-1-piperazinyl]-2-oxoethyl}-3,4-dimethoxybenzenesulphonamide] | 33.6 |
| COc1ccc(S(=O)(=O)N(CC(=O)N2CCc3ccccc3C2)c2cc(C)cc(C)c2)cc1OC [Compound 78, N-[2-(3,4-dihydro-2(1H)-isoquinolinyl)-2-oxoethyl]-N-(3,5-dimethylphenyl)-3,4-d imethoxybenzenesulphonamide] | 38.4 |
| COC(=O)c1c(C)oc2ccc(NS(=O)(=O)c3ccc(C)cc3)cc12 [Compound 3, methyl 2-methyl-5-{[(4-methylphenyl)sulphonyl]amino}-1-benzofuran-3-carboxylate] | 48.09 |

| Compound | % Inhibition 10 μM [%] |
| --- | --- |
| COc1ccc(OC)c(N(CC(=O)Nc2cccc(C(C)=O)c2)S(=O)(=O)c2ccc(C)cc2)c1 [Compound 34, N˜1˜-(3-acetylphenyl)-N-˜2˜-(2,5-dimethoxyphenyl)-N˜2˜-[(4-methylphenyl)sulphonyl]glycinamide] | 42.26 |
| COc1ccc(S(=O)(=O)N(CC(=O)N2CCN(c3ccccc3F)CC2)Cc2ccccc2)cc1 [Compound 77, N-benzyl-N-{2-[4-(2-fluorophenyl)-1-piperazinyl]-2-oxoethyl}-4-methoxybenzenesulphonamide] | 32.8 |
| N-benzyl-4-methyl-N-[2-oxo-2-(4-phenyl-1-piperazinyl)pethyl]benzenesulphonamide [69 (18)] | 61.3 |
| 3-(4-fluorophenyl)-4-oxo-4H-chromen-7-ylN-[(4-methylphenyl)sulphonyl]-beta-alaninate [Compound 24] | 50.26 |
| COc1ccc(S(=O)(=O)N(CC(=O)N2CCN(c3ccccc3OC)CC2)Cc2ccccc2)cc1C [32 (3), N-benzyl-4-methoxy-N-{2-[4-(2-methoxyphenyl)-1-piperazinyl]-2-oxoethyl}-3-methylbenzenesulphonamide] | 69.73 |
| N-[2-(4-benzyl-1-piperazinyl)-2-oxoethyl]-N-(4-chlorophenyl)-4-methyl benzenesulphonamide [68 (16)] | 56.2 |
| CCOc1ccc(S(=O)(=O)Nc2cc3c(C(C)=O)c(C)oc3c3ccccc23)cc1 [16 (1), N-(3-acetyl-2-methylnaphthho[1,2-b]furan-5-yl)-4-ethoxybenzene sulphonamide] | 80.40 |
| Cc1ccc(S(=O)(=O)N(CC(=O)N2CCN(Cc3ccccc3)CC2)c2cc(C)cc(C)c2)cc1 [Compound 76, N-[2-(4-benzyl-1-piperazinyl)-2-oxoethyl]-N-(3,5-dimethylphenyl)-4-methylbenzenesulphonamide] | 35.5 |
| COc1ccc(S(=O)(=O)Nc2cc3c(C(C)=O)c(C)oc3cc2C)cc1 [Compound 1, N-(3-acetyl-2,6-dimethyl-1-benzofuran-5-yl)-4-methoxybenzene sulphonamide] | 71.15 |
| Cc1ccc(CN(CC(=O)N2CCN(c3ccc(F)cc3)CC2)S(=O)(=O)c2ccccc2)cc1 [Compound 80, N-{2-[4-(4-fluorophenyl)-1-piperazinyl]-2-oxoethyl}-N-(4-methylbenzyl)benzenesulphonamide] | 34.3 |
| COc1ccc(S(=O)(=O)N(CC(=O)N2CCN(c3ccccc3)CC2)c2ccc(C)cc2)cc1OC [Compound 79, 3,4-dimethoxy-N-(4-methylphenyl)-N-[2-oxo-2-(4-phenyl-1-piperazinyl)ethyl]benzenesulphonamide] | 36.8 |
| N-[2-(4-benzyl-1-piperazinyl)-2-oxoethyl]-N-(3-chlorophenyl)-4-methyl benzenesulphonamide [65 (13)] | 61.4 |
| CC1CCN(C(=O)CN(Cc2ccc(Cl)c(Cl)c2)S(=O)(=O)c2ccc(Cl)cc2)CC1 [Compound 74, 4-chloro-N-(3,4-dichlorobenzyl)-N-[2-(4-methyl-1-piperidinyl)-2-oxoethyl]benzenesulphonamide] | 45.6 |
| N-{2-[4-(2-fluorophenyl)-1-piperazinyl]-2-oxoethyl}-N-(4-methylbenzyl) benzenesulphonamide [70 (19)] | 54.0 |
| COc1ccccc1N1CCN(C(=O)CN(Cc2ccc(F)cc2)S(=O)(=O)c2ccc(Cl)cc2)CC1 [Compound 71, 4-chloro-N-(4-fluorobenzyl)-N-{2-[4-(2-methoxyphenyl)-1-piperazinyl]-2-oxoethyl}benzenesulphonamide] | 53.6 |
